This note sets out measurements from paper PMC5604080, “Genetic and Biochemical Characterization of 2-Chloro-5-Nitrophenol Degradation in a Newly Isolated Bacterium, Cupriavidus sp. Strain CNP-8” (Frontiers in Microbiology, 2017).

Data set [1] addresses T1, MnpC (H6-MnpC) (Cupriavidus sp. CNP-8, UniProt A0A291LMA7).
T1 construct: full-length, pET-28a NdeI-XhoI, His6-tagged (H6-MnpC), E. coli Rosetta(DE3)pLysS, Ni-NTA purified, about 35 kDa, single-subunit dioxygenase
T1 sequence (A0A291LMA7 1-316): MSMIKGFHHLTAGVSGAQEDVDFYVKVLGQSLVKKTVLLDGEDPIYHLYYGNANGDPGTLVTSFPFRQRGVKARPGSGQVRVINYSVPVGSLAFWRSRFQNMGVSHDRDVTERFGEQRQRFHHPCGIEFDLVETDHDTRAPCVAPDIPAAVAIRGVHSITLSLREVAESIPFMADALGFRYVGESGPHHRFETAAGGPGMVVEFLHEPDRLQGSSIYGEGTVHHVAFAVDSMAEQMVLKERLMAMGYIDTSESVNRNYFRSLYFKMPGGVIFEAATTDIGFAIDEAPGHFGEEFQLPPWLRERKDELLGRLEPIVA
The data set is described as follows: spectrophotometric turnover, product with λmax […] nm. The data set is classed as biochemical. Conditions: structure analog used in place of unstable aminohydroquinone.

The test system of data set [2] is O=[N+]([O-])c1cccc(O)c1. As to the kind of experiment: purified protein. The data set is classed as biochemical, Cupriavidus sp. CNP-8. Conditions: 0.2 mM NADPH, 50 mM phosphate pH 7.5.
The test system of data set [3] is O=[N+]([O-])c1ccc(Cl)c(O)c1. As to the kind of experiment: purified protein. It is filed as biochemical, Cupriavidus sp. CNP-8. Conditions: 0.2 mM NADPH, 50 mM phosphate pH 7.5.

Turning to `Oc1ccc(O)c(Cl)c1` [chlorohydroquinone], in data set [1], the “spectrophotometric turnover, product with λmax 320 nm” value is “H6-MnpC catalyzed rapid degradation of both CHQ and HQ”.
As for `Oc1ccc(O)cc1` [hydroquinone], the “spectrophotometric turnover, product with λmax 320 nm” value in data set [1] is “H6-MnpC catalyzed rapid degradation of both CHQ and HQ”.
For the compound MnpA (H6-MnpA) (Cupriavidus sp. CNP-8), the results for the Km in data set [2] and in data set [3] were 3.4 ± 1.63 µM and 16.3 ± 2.87 µM, respectively.

In general, Km refers to the concentration of substrate that gives half-maximal velocity.
